Laboratory results taken from PubChem BioAssay AID1963973 (Molecular Pharmacology Branch, DTP, NCI, 2024).

Tested on: 883617-216-R-J1-PDC tumor spheroids, viability
Assay: Anticancer human tumor 883617-216-R-J1-PDC patient-derived bladder carcinoma cell line growth inhibition [PI3K]
Settings: spheroids with HUVEC and MSC; for IC50: curve of first compound; for viability, T/C: stronger effect = lower value; active = viability on the fitted dose curve at most 10% of control; inactive = the rest
Method in brief: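 Tumor cells grown as multi-cell spheroids with HUVEC endothelial cells and MSC fibroblast-like stroma were treated with targeted agents combined with inavolisib, alpelisib, duvelisib or copanlisib. Doses fell in half-log steps from near clinical Cmax, else from 10 microM. Viability was measured.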

[1] = second compound 0.00316 µM, first compound 0.0316 µM
[2] = second compound 0.00316 µM, first compound 0.1 µM
[3] = second compound 0.00316 µM, first compound 0.316 µM
[4] = second compound 0.00316 µM, first compound 1 µM
[5] = second compound 0.00316 µM, first compound 3.16 µM
[6] = second compound 0.00316 µM, first compound 10 µM
[7] = second compound 0.01 µM, first compound 0.0316 µM
[8] = second compound 0.01 µM, first compound 0.1 µM
[9] = second compound 0.01 µM, first compound 0.316 µM
[10] = second compound 0.01 µM, first compound 1 µM
[11] = second compound 0.01 µM, first compound 3.16 µM
[12] = second compound 0.01 µM, first compound 10 µM
[13] = second compound 0.0316 µM, first compound 0.0316 µM
[14] = second compound 0.0316 µM, first compound 0.1 µM
[15] = second compound 0.0316 µM, first compound 0.316 µM
[16] = second compound 0.0316 µM, first compound 1 µM
[17] = second compound 0.0316 µM, first compound 3.16 µM
[18] = second compound 0.0316 µM, first compound 10 µM
[19] = second compound 0.1 µM, first compound 0.0316 µM
[20] = second compound 0.1 µM, first compound 0.1 µM
[21] = second compound 0.1 µM, first compound 0.316 µM
[22] = second compound 0.1 µM, first compound 1 µM
[23] = second compound 0.1 µM, first compound 3.16 µM
[24] = second compound 0.1 µM, first compound 10 µM
[25] = second compound 0.316 µM, first compound 0.0316 µM
[26] = second compound 0.316 µM, first compound 0.1 µM
[27] = second compound 0.316 µM, first compound 0.316 µM
[28] = second compound 0.316 µM, first compound 1 µM
[29] = second compound 0.316 µM, first compound 3.16 µM
[30] = second compound 0.316 µM, first compound 10 µM
[31] = second compound 1 µM, first compound 0.0316 µM
[32] = second compound 1 µM, first compound 0.1 µM
[33] = second compound 1 µM, first compound 0.316 µM
[34] = second compound 1 µM, first compound 1 µM
[35] = second compound 1 µM, first compound 3.16 µM
[36] = second compound 1 µM, first compound 10 µM
[37] = second compound 0.00316 µM, first compound 0.00316 µM
[38] = second compound 0.00316 µM, first compound 0.01 µM
[39] = second compound 0.01 µM, first compound 0.00316 µM
[40] = second compound 0.01 µM, first compound 0.01 µM
[41] = second compound 0.0316 µM, first compound 0.00316 µM
[42] = second compound 0.0316 µM, first compound 0.01 µM
[43] = second compound 0.1 µM, first compound 0.00316 µM
[44] = second compound 0.1 µM, first compound 0.01 µM
[45] = second compound 0.316 µM, first compound 0.00316 µM
[46] = second compound 0.316 µM, first compound 0.01 µM
[47] = second compound 1 µM, first compound 0.00316 µM
[48] = second compound 1 µM, first compound 0.01 µM
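Note: spheroids exposed to agents for 7 days before the viability read.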

CC(C)NCC(C(=O)N1CCN(c2ncnc3c2C(C)CC3O)CC1)c1ccc(Cl)cc1 (stereo not drawn) + COc1c(OCCCN2CCOCC2)ccc2c3n(c(=NC(=O)c4cnc(N)nc4)nc12)CCN3
475 nM: IC50 (second compound 0.00316 µM)
inactive: viability, T/C [1] 89.7% | viability, T/C [2] 67.4% | viability, T/C [3] 59.5% | viability, T/C [4] 41.5% | viability, T/C [5] 18.4% | viability, T/C [7] 63.5% | viability, T/C [8] 53.7% | viability, T/C [9] 45.7% | viability, T/C [10] 26.7% | viability, T/C [11] 17.2% | viability, T/C [13] 44.2% | viability, T/C [14] 37.1% | viability, T/C [15] 26.4% | viability, T/C [16] 27.7% | viability, T/C [17] 8.87% | viability, T/C [19] 22% | viability, T/C [20] 15% | viability, T/C [21] 12.2%
active: viability, T/C [6] 7.44% | viability, T/C [12] 6.61% | viability, T/C [18] 4.74% | viability, T/C [22] 9.69% | viability, T/C [23] 5.3% | viability, T/C [24] 3.5% | viability, T/C [25] 5.34% | viability, T/C [26] 5.49% | viability, T/C [27] 4.1% | viability, T/C [28] 4.13% | viability, T/C [29] 3.12% | viability, T/C [30] 2.45% | viability, T/C [31] 2.86% | viability, T/C [32] 3.36% | viability, T/C [33] 3.4% | viability, T/C [34] 2.86% | viability, T/C [35] 3.11% | viability, T/C [36] 1.47%
167 nM: IC50 (second compound 0.01 µM)
< 31.6 nM: IC50 (second compound 0.0316 µM) | IC50 (second compound 0.1 µM) | IC50 (second compound 0.316 µM) | IC50 (second compound 1 µM)

CCN1CCN(Cc2ccc(Nc3ncc(F)c(-c4cc(F)c5nc(C)n(C(C)C)c5c4)n3)nc2)CC1 + COc1c(OCCCN2CCOCC2)ccc2c3n(c(=NC(=O)c4cnc(N)nc4)nc12)CCN3
< 3.16 nM: IC50 (second compound 0.0316 µM) | IC50 (second compound 0.1 µM) | IC50 (second compound 0.316 µM) | IC50 (second compound 1 µM)
inactive: viability, T/C [37] 91.3% | viability, T/C [38] 83.5% | viability, T/C [1] 70.2% | viability, T/C [2] 57.2% | viability, T/C [3] 47.6% | viability, T/C [4] 42.3% | viability, T/C [39] 65.5% | viability, T/C [40] 62.2% | viability, T/C [7] 51.4% | viability, T/C [8] 40.4% | viability, T/C [9] 40.7% | viability, T/C [10] 38.8% | viability, T/C [41] 36.3% | viability, T/C [42] 31.1% | viability, T/C [13] 24.8% | viability, T/C [14] 25.9% | viability, T/C [15] 24% | viability, T/C [16] 21.5% | viability, T/C [43] 14.6% | viability, T/C [44] 12.9% | viability, T/C [19] 18.3% | viability, T/C [20] 11.5% | viability, T/C [21] 12.6% | viability, T/C [22] 11.8%
active: viability, T/C [45] 4.77% | viability, T/C [46] 4.9% | viability, T/C [25] 4.63% | viability, T/C [26] 4.67% | viability, T/C [27] 4.91% | viability, T/C [28] 6.41% | viability, T/C [47] 2.94% | viability, T/C [48] 3% | viability, T/C [31] 3.07% | viability, T/C [32] 3.49% | viability, T/C [33] 4.44% | viability, T/C [34] 6.38%
234 nM: IC50 (second compound 0.00316 µM)
35.6 nM: IC50 (second compound 0.01 µM)

Cn1ncc(Cl)c1-c1cc(C(=O)NC(CN)Cc2cccc(F)c2)sc1Cl (stereo not drawn) + COc1c(OCCCN2CCOCC2)ccc2c3n(c(=NC(=O)c4cnc(N)nc4)nc12)CCN3
473 nM: IC50 (second compound 0.00316 µM)
active: viability, T/C [6] 5.61% | viability, T/C [12] 4.83% | viability, T/C [18] 3.75% | viability, T/C [22] 8.94% | viability, T/C [23] 5.15% | viability, T/C [24] 2.08% | viability, T/C [25] 6.38% | viability, T/C [26] 4.23% | viability, T/C [27] 5.38% | viability, T/C [28] 5.78% | viability, T/C [29] 2.33% | viability, T/C [30] 1.23% | viability, T/C [31] 3.15% | viability, T/C [32] 3.32% | viability, T/C [33] 2.66% | viability, T/C [34] 2.93% | viability, T/C [35] 2.39% | viability, T/C [36] 0.58%
inactive: viability, T/C [1] 83.1% | viability, T/C [2] 85.4% | viability, T/C [3] 59% | viability, T/C [4] 29.6% | viability, T/C [5] 13.9% | viability, T/C [7] 66% | viability, T/C [8] 61.6% | viability, T/C [9] 45.4% | viability, T/C [10] 28.1% | viability, T/C [11] 10% | viability, T/C [13] 33.8% | viability, T/C [14] 34.7% | viability, T/C [15] 33.2% | viability, T/C [16] 15.1% | viability, T/C [17] 8.09% | viability, T/C [19] 17.8% | viability, T/C [20] 12.7% | viability, T/C [21] 10.8%
241 nM: IC50 (second compound 0.01 µM)
< 31.6 nM: IC50 (second compound 0.0316 µM) | IC50 (second compound 0.1 µM) | IC50 (second compound 0.316 µM) | IC50 (second compound 1 µM)

Cn1ncnc1[C@H]1c2n[nH]c(=O)c3cc(F)cc(c23)N[C@@H]1c1ccc(F)cc1 + COc1c(OCCCN2CCOCC2)ccc2c3n(c(=NC(=O)c4cnc(N)nc4)nc12)CCN3
active: viability, T/C (second compound 0.316 µM, first compound 0.000316 µM) 5.21% | viability, T/C (second compound 0.316 µM, first compound 0.001 µM) 5.06% | viability, T/C [45] 5.56% | viability, T/C [46] 5.19% | viability, T/C [25] 5.74% | viability, T/C [26] 3.68% | viability, T/C (second compound 1 µM, first compound 0.000316 µM) 4.93% | viability, T/C (second compound 1 µM, first compound 0.001 µM) 4.65% | viability, T/C [47] 3.52% | viability, T/C [48] 2.9% | viability, T/C [31] 3.13% | viability, T/C [32] 2.73%
> 100 nM: IC50 (second compound 0.00316 µM) | IC50 (second compound 0.01 µM)
inactive: viability, T/C (second compound 0.00316 µM, first compound 0.000316 µM) 88.1% | viability, T/C (second compound 0.00316 µM, first compound 0.001 µM) 79.5% | viability, T/C [37] 87.2% | viability, T/C [38] 75.3% | viability, T/C [1] 67.2% | viability, T/C [2] 54.6% | viability, T/C (second compound 0.01 µM, first compound 0.000316 µM) 63.2% | viability, T/C (second compound 0.01 µM, first compound 0.001 µM) 64.7% | viability, T/C [39] 64.9% | viability, T/C [40] 86.1% | viability, T/C [7] 54.8% | viability, T/C [8] 45% | viability, T/C (second compound 0.0316 µM, first compound 0.000316 µM) 31.3% | viability, T/C (second compound 0.0316 µM, first compound 0.001 µM) 36.6% | viability, T/C [41] 35.3% | viability, T/C [42] 33.9% | viability, T/C [13] 39.3% | viability, T/C [14] 29% | viability, T/C (second compound 0.1 µM, first compound 0.000316 µM) 16% | viability, T/C (second compound 0.1 µM, first compound 0.001 µM) 17.7% | viability, T/C [43] 16.2% | viability, T/C [44] 15.3% | viability, T/C [19] 15.6% | viability, T/C [20] 14.1%
< 0.316 nM: IC50 (second compound 0.0316 µM) | IC50 (second compound 0.1 µM) | IC50 (second compound 0.316 µM) | IC50 (second compound 1 µM)
